According to patent US20250034216A1, “STEREOSELECTIVE COVALENT LIGANDS FOR ONCOGENIC AND IMMUNOLOGICAL PROTEINS” (The Scripps Research Institute, priority 2021, published 2025):

Experiments:
Experiment in all cases: IA-DTB cysteine engagement
Assay type in all cases: binding
Conditions in all cases: 22Rv1 cells, 20 μM probe, 1 h, relative to DMSO
[1] = target: T1, NUDT8_C207 (Homo sapiens, UniProt Q8WV74)
T1 construct: endogenous in cells; host or cells: 22Rv1
T1 sequence (Q8WV74 1-236): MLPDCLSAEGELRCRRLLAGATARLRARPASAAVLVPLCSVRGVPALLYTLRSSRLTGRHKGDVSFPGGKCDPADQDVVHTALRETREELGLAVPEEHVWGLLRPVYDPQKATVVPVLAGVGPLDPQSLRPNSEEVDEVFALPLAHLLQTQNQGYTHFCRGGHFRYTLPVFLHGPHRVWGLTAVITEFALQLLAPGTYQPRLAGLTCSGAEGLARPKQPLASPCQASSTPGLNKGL
How it was run: (§1)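 In-situ probe treatment of cells; lysate 2 mg/mL, IA-DTB 1 h RT; MeOH/CHCl3 precipitation, DTT/iodoacetamide, trypsin; streptavidin enrichment; TMT labeling, high-pH fractionation. Ratio = TMT reporter intensity / mean DMSO channels, median-normalized.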

[2] = target: T2, ZNF346_C68 (Homo sapiens, UniProt Q9UL40)
T2 construct: endogenous in cells; host or cells: 22Rv1
T2 sequence (Q9UL40 1-294): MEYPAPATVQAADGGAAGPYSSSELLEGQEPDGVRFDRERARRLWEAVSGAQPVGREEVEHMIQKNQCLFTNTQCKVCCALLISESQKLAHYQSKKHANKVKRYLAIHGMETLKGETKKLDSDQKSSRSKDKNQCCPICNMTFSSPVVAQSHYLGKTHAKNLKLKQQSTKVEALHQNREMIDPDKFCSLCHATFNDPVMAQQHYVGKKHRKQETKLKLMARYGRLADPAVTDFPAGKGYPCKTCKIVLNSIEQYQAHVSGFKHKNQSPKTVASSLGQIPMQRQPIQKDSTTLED
How it was run: as §1

[3] = target: T3, NAPIL1_C132 (Homo sapiens, UniProt P55209)
T3 construct: endogenous in cells; host or cells: 22Rv1
T3 sequence (P55209 1-391): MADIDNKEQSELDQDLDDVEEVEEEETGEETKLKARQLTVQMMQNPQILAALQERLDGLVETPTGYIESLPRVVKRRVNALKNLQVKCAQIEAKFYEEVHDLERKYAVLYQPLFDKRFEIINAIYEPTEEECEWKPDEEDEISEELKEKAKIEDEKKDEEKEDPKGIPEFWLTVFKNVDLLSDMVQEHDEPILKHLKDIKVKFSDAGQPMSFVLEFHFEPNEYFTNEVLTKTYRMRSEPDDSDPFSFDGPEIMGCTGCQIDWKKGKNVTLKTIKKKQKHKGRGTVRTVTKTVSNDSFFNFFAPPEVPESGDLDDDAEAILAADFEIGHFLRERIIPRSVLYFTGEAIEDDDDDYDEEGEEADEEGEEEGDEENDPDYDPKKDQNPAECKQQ
How it was run: as §1

Row | % engagement NUDT8_C207 [1] [%] | % engagement ZNF346_C68 [2] [%] | % engagement NAPIL1_C132 [3] [%] | SMILES
1 | 71.5 | 95.5 | −21.5 | C=CC(=O)N1C[C@@H](c2ccc(Br)cc2)[C@H]1C(=O)Nc1cccc2cccnc12 [MY-1A, (2S,3R)-1-acryloyl-3-(4-bromophenyl)-N-(quinolin-8-yl)azetidine-2-carboxamide]
2 | 78.5 | 37 | 6 | C=CC(=O)N1C[C@H](c2ccc(Br)cc2)[C@@H]1C(=O)Nc1cccc2cccnc12 [MY-1B, (2R,3S)-1-acryloyl-3-(4-bromophenyl)-N-(quinolin-8-yl)azetidine-2-carboxamide]
3 | 88.75 | 45.25 | 80 | C=CC(=O)N1C[C@H](c2ccc(Br)cc2)[C@H]1C(=O)Nc1cccc2cccnc12 [MY-3B, (2S,3S)-1-acryloyl-3-(4-bromophenyl)-N-(quinolin-8-yl)azetidine-2-carboxamide]
4 | 64.25 | 14 | 25 | C=CC(=O)N1C[C@H](c2ccc(Br)cc2)[C@H]1C(=O)Nc1cccc2cccnc12 [MY-3A, (2S,3S)-1-acryloyl-3-(4-bromophenyl)-N-(quinolin-8-yl)azetidine-2-carboxamide]
